Assay results published in US5473103A, “Biopolymers derived from hydrolyzable diacid fats” (Yissum Research Development Co. of the Hebrew University of …, priority 1993, dated 1995).
Where a name gives a salt, the structure may show the parent alone.

Tested on: esterase from porcine liver
Assay: in vitro enzymatic degradation by esterase
Type: in vitro ADME
Conditions: 200 mg monomer, 50 units esterase, 24 hours, 37° C., 1H NMR
Description: The enzymatic degradation of these new monomers were compared to those of the oligomerized fatty acids. The monomers RAM, HSAM, HSAS, FAD, and FAT (200 mg) were mixed in a solution containing esterase (2 ml, containing 50 units of esterase from porcine liver, Sigma Chemical Company, St. Louis, Missouri) and were incubated for 24 hours at 37° C. The monomers or their degradation products were extracted with chloroform and analyzed by ^1 H NMR. […] The RAM, and HSAS monomers contained about 10% ricinoleic acid or 12-hydroxy stearic acid, respectively.

ricinoleic acid or 12-hydroxy stearic acid formed	SMILES
about 10%	CCCCCCC(CCCCCCCCCCC(=O)O)OC(=O)CCC(=O)O (centres unmarked) [HSAS, 12-hydroxy stearic acid succinate]
about 10%	CCCCCC[C@H](C/C=C\CCCCCCCC(=O)O)OC(=O)/C=C\C(=O)O [RAM, ricinoleic acid maleate]
